The text below walks through data of patent EP4806894A1, “TNAP INHIBITORY COMPOUND AND USE THEREOF” (Rednvia Co., Ltd., priority 2023, dated 2025).

Structures are written as SMILES. Where a name gives a salt, the structure may show the parent alone. A value given as a limit tells only on which side of the number the result lay.

The test system of one assay is saos-2 cells. The assay is described as follows: Anticalcification efficacy in saos-2 cells (osteogenic medium, Alizarin Red staining). As to conditions: Homo sapiens, 168 h, test compound 1 µM, 7 days osteogenic medium, Alizarin Red absorbance 540 nm, read-out: calcification inhibition. In kind it is cell-based. On the procedure: To confirm the inhibitory effect of calcification in saos-2 cells in which calcification is induced by overexpression of TNAP, saos-2 cells were cultured in a culture medium in an incubator at 37°C, 95% humidity, and 5% CO2. RPMI-1640 (Corning) supplemented with 10% FBS (Gibco) and 1% Pen/Strep (Gibco) was used as the culture medium.
Saos-2 cells were seeded in a 48-well plate at the density of 1.5 x 10^4 cells/well and used in the experiment when they reached 80-90% confluence after stabilization for 2 days.
After saos-2 cells were cultured in a 48-well plate to 80-90% confluence, the culture medium was removed and replaced with an osteogenic medium (OM). DMEM (Gibco) containing 10% FBS, 1% Pen/Strep, 100 nM dexamethasone (Sigma), 10 mM β-glycerophosphate (Sigma), and 0.05 mM L-ascorbic acid (Sigma) was used as the OM. Osteogenic differentiation of saos-2 cells by OM was induced for 7 days, and OM was replaced every 2 to 3 days.
When inducing calcification through OM in saos-2 cells, the cells were treated with concentrations of […] of the TNAP inhibitor test compounds with the OM replacement cycle, except for the control group (OM).
After 7 days of OM induction, the medium was removed from each well and the plate was washed twice with PBS. Cells were fixed with 4% paraformaldehyde for 1 hour, then the fixative was removed and washed twice with deionized water (DW). ARS solution was added to the plate and shaken for 1 hour to stain the cells. When the cells were sufficiently stained red, the dye was removed, the cells were washed carefully with DW, dried, and then photographs were taken of the stained cells. The red-stained area represents calcification induced by OM, and the degree of calcification was determined based on the degree of redness. To quantify this, 10% cetylpyridinium chloride was dispensed into the wells and the dye was dissolved. The dye-dissolved solution was transferred to each well of a 96 well plate and absorbance was measured at 540 nm.
The degree of decrease in the measured absorbance by the test compounds based on the absorbance for OM was evaluated as the degree of inhibition of calcification.

In another assay the target is T1, TNAP (Homo sapiens, UniProt P05186).
T1 sequence (P05186 18-502 limits assumed): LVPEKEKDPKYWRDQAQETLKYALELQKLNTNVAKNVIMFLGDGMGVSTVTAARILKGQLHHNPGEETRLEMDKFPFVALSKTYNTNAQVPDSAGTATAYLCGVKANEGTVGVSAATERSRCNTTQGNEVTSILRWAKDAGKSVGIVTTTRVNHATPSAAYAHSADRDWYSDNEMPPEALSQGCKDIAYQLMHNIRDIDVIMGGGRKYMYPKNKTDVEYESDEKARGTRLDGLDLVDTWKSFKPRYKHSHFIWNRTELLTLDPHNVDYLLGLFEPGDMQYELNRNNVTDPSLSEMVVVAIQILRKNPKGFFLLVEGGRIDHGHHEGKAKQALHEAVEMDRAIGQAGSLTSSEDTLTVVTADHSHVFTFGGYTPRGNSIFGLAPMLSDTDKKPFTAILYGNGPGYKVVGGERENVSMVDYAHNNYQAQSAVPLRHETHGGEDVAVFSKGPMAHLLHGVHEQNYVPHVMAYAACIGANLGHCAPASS
The assay is described as follows: TNAP inhibitory activity, colorimetric assay (alkaline phosphatase assay kit ab83369, pNPP substrate). The format is biochemical. The conditions noted are these: TNAP enzyme, 2 hours at room temperature, absorbance 405 nm. As for the experimental part: The TNAP inhibitory activity of the compounds according to the present invention was analyzed by colorimetric assay.
The experiments were performed according to the protocol of the alkaline phosphatase assay kit ab83369.
TNAP enzyme at a concentration of 0.2 ng/µl was dispensed into a 96-well plate (Costar) (10 µl/well), to which the 10-fold diluted test substance was added (15 µl/well). The plate was incubated at room temperature, shielded from light, for 10 minutes to allow the enzyme and compound to act. After incubation, 125 µl of 1 mM substrate (pNPP) was added to each well of the plate, and the plate was incubated for 2 hours at room temperature in a darkened state to allow the enzyme, substrate, and test compound to act. Absorbance was measured at 405 nm using a microplate reader (Tecan spark), and IC50 was calculated using GraphPad Prism 9. The amount of p-nitrophenol produced was calculated through the absorbance, and the degree of TNAP activity inhibition was evaluated through the degree of inhibition of p-nitrophenol production, and the concentration of the compound that inhibited 50% was calculated as the IC50 value.

For `O=C1NCCc2ncc(NS(=O)(=O)c3ccc4c(c3)OCCO4)cc21` [Example 24, N-(5-oxo-5,6,7,8-tetrahydro-1,6-naphthyridine-3-yl)-2,3-dihydrobenzo[b][1,4]dioxine-6-sulfonamide], the inhibition at 1 µM in the assay with saos-2 cells was less than 0%. Also, the IC50 against TNAP was no less than 1000 nM.
In the case of `O=C1COc2ccc(S(=O)(=O)Nc3cnc4c(c3)C(=O)NCC4)cc2N1` [Example 25, 3-oxo-N-(5-oxo-5,6,7,8-tetrahydro-1,6-naphthyridine-3-yl)-3,4-dihydro-2H-benzo[b][1,4]oxazine-6-sulfonamide], the inhibition at 1 µM in the assay with saos-2 cells was less than 0%. This compound showed an IC50 at TNAP of no less than 1000 nM.
The like results for `COC(=O)Cc1ccc(-c2ccc(OC)c(S(=O)(=O)Nc3cnc4c(c3)C(=O)NC4)c2)cc1` [Example 27, methyl 2-(4'-methoxy-3'-(N-(5-oxo-6,7-dihydro-5H-pyrrolo[3,4-b]pyridine-3-yl)sulfamoyl)-[1,1'-biphenyl]-4-yl)acetate] were, in that order, no less than 50% and 100 to 1000 nM.
The like results for `COc1ccc(-c2ccc(CC(=O)O)cc2)cc1S(=O)(=O)Nc1cnc2c(c1)C(=O)NC2` [Example 28, 2-(4'-methoxy-3'-(N-(5-oxo-6,7-dihydro-5H-pyrrolo[3,4-b]pyridine-3-yl)sulfamoyl)-[1,1'-biphenyl]-4-yl)acetic acid] were, in that order, no less than 50% and 10 to 100 nM.
In the case of `COc1ccc(-c2ccc3c(c2)OCCO3)cc1S(=O)(=O)Nc1cnc2c(c1)C(=O)NCC2` [Example 29, 5-(2,3-dihydrobenzo[b][1,4]dioxine-6-yl)-2-methoxy-N-(5-oxo-5,6,7,8-tetrahydro-1,6-naphthyridine-3-yl)benzenesulfonamide], the inhibition at 1 µM with saos-2 cells is no less than 50%. On TNAP, the IC50 lay within 100 to 1000 nM.
Take `COc1ccc(-c2ccc(OC)c(S(=O)(=O)Nc3cnc4c(c3)C(=O)NCC4)c2)cc1` [Example 30, 4,4'-dimethoxy-N-(5-oxo-5,6,7,8-tetrahydro-1,6-naphthyridine-3-yl)-[1,1'-biphenyl]-3-sulfonamide]: the inhibition at 1 µM with saos-2 cells was 0 to 50%. For the same compound, at TNAP, the IC50 is no less than 1000 nM.
Consider `COc1ccc(-c2ccncc2)cc1S(=O)(=O)Nc1cnc2c(c1)C(=O)NCC2` [Example 31, 2-methoxy-N-(5-oxo-5,6,7,8-tetrahydro-1,6-naphthyridine-3-yl)-5-(pyridine-4-yl)benzenesulfonamide], for which the inhibition at 1 µM with saos-2 cells was no less than 50%. This compound came in with an IC50 at TNAP of 100 to 1000 nM.
`COc1ccc(-c2ccc(C3(C(=O)O)CC3)cc2)cc1S(=O)(=O)Nc1cnc2c(c1)C(=O)NCC2` [Example 32, 1-(4'-methoxy-3'-(N-(5-oxo-5,6,7,8-tetrahydro-1,6-naphthyridine-3-yl)sulfamoyl)-[1,1'-biphenyl]-4-yl)cyclopropane-1-carboxylic acid]: the inhibition at 1 µM with saos-2 cells is no less than 50%. This compound also showed an IC50 on TNAP of 10 to 100 nM.
For `COc1ccc(-c2ccc(CC(=O)O)cc2)cc1S(=O)(=O)Nc1cnc2c(c1)C(=O)NCC2` [Example 33, 2-(4'-methoxy-3'-(N-(5-oxo-5,6,7,8-tetrahydro-1,6-naphthyridine-3-yl)sulfamoyl)-[1,1'-biphenyl]-4-yl)acetic acid], the inhibition at 1 µM in the assay on saos-2 cells was no less than 50%. Besides, the IC50 on TNAP lay within 10 to 100 nM.
Take `COc1ccc(-c2ccc(C(=O)O)cc2)cc1S(=O)(=O)Nc1cnc2c(c1)C(=O)NCC2` [Example 34, 4'-methoxy-3'-(N-(5-oxo-5,6,7,8-tetrahydro-1,6-naphthyridine-3-yl)sulfamoyl)-[1,1'-biphenyl]-4-carboxylic acid]: the inhibition at 1 µM in the assay on saos-2 cells was no less than 50%. Besides, the IC50 at TNAP lay within 100 to 1000 nM.
Consider `O=C(O)Cc1ccc(-c2ccc(F)cc2S(=O)(=O)Nc2cnc3c(c2)C(=O)NCC3)cc1` [Example 35, 2-(4'-fluoro-2'-(N-(5-oxo-5,6,7,8-tetrahydro-1,6-naphthyridine-3-yl)sulfamoyl)-[1,1'-biphenyl]-4-yl)acetic acid], for which the inhibition at 1 µM in the assay with saos-2 cells is no less than 50%. For the same compound, the IC50 against TNAP was no more than 10 nM.
For `O=C1NCCc2ncc(NS(=O)(=O)c3cc(F)ccc3-c3ccc(C4(C(=O)O)CC4)cc3)cc21` [Example 36, 1-(4'-fluoro-2'-(N-(5-oxo-5,6,7,8-tetrahydro-1,6-naphthyridine-3-yl)sulfamoyl)-[1,1'-biphenyl]-4-yl)cyclopropane-1-carboxylic acid], in the assay on saos-2 cells, the inhibition at 1 µM was no less than 50%. Besides, the IC50 against TNAP lay in the range of 10 to 100 nM.
For `O=C1NCCc2ncc(NS(=O)(=O)c3c(F)cc(F)cc3-c3ccc(C4(C(=O)O)CC4)cc3)cc21` [Example 37, 1-(3',5'-difluoro-2'-(N-(5-oxo-5,6,7,8-tetrahydro-1,6-naphthyridine-3-yl)sulfamoyl)-[1,1'-biphenyl]-4-yl)cyclopropane-1-carboxylic acid], the inhibition at 1 µM in the assay with saos-2 cells is less than 0%. Also, the IC50 at TNAP was no less than 1000 nM.
In the case of `O=C1NCCc2ncc(NS(=O)(=O)c3cc(-c4ccc(C5(C(=O)O)CC5)cc4)cc4c3OCC4)cc21` [Example 38, 1-(4-(7-(N-(5-oxo-5,6,7,8-tetrahydro-1,6-naphthyridine-3-yl)sulfamoyl)-2,3-dihydrobenzofuran-5-yl)phenyl)cyclopropane-1-carboxylic acid], the inhibition at 1 µM in the assay on saos-2 cells was less than 0%. Besides, the IC50 against TNAP is no less than 1000 nM.
The like results for `NCc1ccc(-c2cc(F)cc(F)c2S(=O)(=O)Nc2cnc3c(c2)C(=O)NCC3)cc1` [Example 40, 4'-(aminomethyl)-3,5-difluoro-N-(5-oxo-5,6,7,8-tetrahydro-1,6-naphthyridine-3-yl)-[1,1'-biphenyl]-2-sulfonamide hydrochloride] were, in that order, less than 0% and no less than 1000 nM.
In the case of `NCc1ccc(-c2cc3c(c(S(=O)(=O)Nc4cnc5c(c4)C(=O)NCC5)c2)OCC3)cc1` [Example 41, 5-(4-(aminomethyl)phenyl)-N-(5-oxo-5,6,7,8-tetrahydro-1,6-naphthyridine-3-yl)-2,3-dihydrobenzofuran-7-sulfonamide], the inhibition at 1 µM in the assay on saos-2 cells is less than 0%. Besides, on TNAP, the IC50 was no less than 1000 nM.
For `CCOC(=O)C(C)n1cc(-c2ccc(OC)c(S(=O)(=O)Nc3cnc4c(c3)C(=O)NCC4)c2)cn1` (stereo not shown) [Example 42, ethyl 2-(4-(4-methoxy-3-(N-(5-oxo-5,6,7,8-tetrahydro-1,6-naphthyridine-3-yl)sulfamoyl)phenyl)-1H-pyrazole-1-yl)propanoate], the inhibition at 1 µM in the assay on saos-2 cells was no less than 50%. For the same compound, on TNAP, the IC50 was no more than 10 nM.
For `COc1ccc(-c2cnn(C(C)C(=O)O)c2)cc1S(=O)(=O)Nc1cnc2c(c1)C(=O)NCC2` (stereo not shown) [Example 43, 2-(4-(4-methoxy-3-(N-(5-oxo-5,6,7,8-tetrahydro-1,6-naphthyridine-3-yl)sulfamoyl)phenyl)-1H-pyrazole-1-yl)propanoic acid] the same measures were no less than 50% and 10 to 100 nM.
The like results for `COc1ccc(-c2cnc(N)nc2)cc1S(=O)(=O)Nc1cnc2c(c1)C(=O)NCC2` [Example 44, 5-(2-aminopyrimidine-5-yl)-2-methoxy-N-(5-oxo-5,6,7,8-tetrahydro-1,6-naphthyridine-3-yl)benzenesulfonamide] were, in that order, no less than 50% and 100 to 1000 nM.
On to `COc1ccc(-c2cnn3ccccc23)cc1S(=O)(=O)Nc1cnc2c(c1)C(=O)NCC2` [Example 45, 2-methoxy-N-(5-oxo-5,6,7,8-tetrahydro-1,6-naphthyridine-3-yl)-5-(pyrazolo[1,5-a]pyridine-3-yl)benzenesulfonamide], for which the inhibition at 1 µM in the assay on saos-2 cells is no less than 50%. This compound displayed an IC50 at TNAP of 100 to 1000 nM.
